Reference: US10377741B2, “Substituted heteroaryl aldehyde compounds and methods for their use in increasing tissue oxygenation” (Global Blood Therapeutics, Inc., priority 2011, dated 2019)

Tests used:
purified HBS = molecular target: T1, purified HBS (Homo sapiens, UniProt P68871+P69905, E7V); test: Polymerization assay (delay time of HbS polymerization); format: biochemical, human (homozygous sickle cell patients); details: percent delay (% DT) vs HBS alone; 50 μM purified HBS, 1.8 M potassium phosphate pH 7.4
T1 construct: HbS was purified by a modified procedure; from tissue; host or cells: blood of homozygous sickle cell patients (CHORI); for the polymerization assay purified by the CRO VIRUSYS
Protocol: Polymerization assays are carried out in vitro using purified HBS exchanged into 1.8 M potassium phosphate buffer at pH 7.4. Using a slightly modified protocol (Antonini and Brunori, 1971), HbS is purified by the CRO VIRUSYS, from blood obtained from homozygous sickle cell patients through the Hemoglobinopathy Center at Children's Hospital Oakland Research Institute (CHORI) with Institutional Review Board approval. Compounds are prepared in 100% DMSO and a desired amount is added to 50 μM of purified HBS at a final DMSO concentration of 0.3%. Final potassium phosphate concentration is adjusted to 1.8 M using a combination of 2.5 M potassium phosphate stock solution and water at pH 7.4. The reaction mixture is incubated for an hour at 37° C. and then transferred into a 24-well plate for deoxygenation in a glove box containing 99.5% nitrogen and 0.5% oxygen. The 24-well plate is not covered and incubated at 4° C. on a plate cooler inside the glove box for one and a half hours. Fifty μL of the reaction mixture is transferred into a 96-well plate and the absorbance at 700 nm is measured every minute for one hour at 37° C. in a plate reader located inside the glove box. A plot of the absorbance against time is fitted using a Boltzman sigmoidal fit and the delay time (from zero to time at half Vmax) is measured. To compare and rank compounds, delay times are expressed as percent delay (% DT), which is defined as the difference in delay times for HBS/compound and HBS alone multiplied by 100 and divided by the delay time for HBS alone.
Compounds listed below have been tested in the polymerization assay. Activity ranges are defined by the number of dagger (†) symbols indicated. † denotes activity ≥40% but ≤80%; †† denotes activity >80% but ≤120%; ††† denotes activity >120% but ≤140%; †††† denotes activity >160%.

whole blood = test: Whole blood assay: oxygen equilibrium curves of whole blood; format: cell-based, human (homozygous sickle cell patients); details: compound at 1000 μM; hematocrit 20%, 1 hour at 37° C.
Protocol: Oxygen Equilibrium Curves (OEC) of whole blood before and after treatment with different concentrations of substituted benzaldehyde compounds were performed as follows using a HEMOX analyzer (TCS Scientific, New Hope, Pa.). Blood samples from homozygous sickle cell patients were obtained though the Hemoglobinopathy Center at Children's Hospital Oakland Research Institute (CHORI) with Institutional Review Board approval. The hematocrit was adjusted to 20% using autologous plasma and the blood samples were incubated for 1 hour at 37° C. in absence or presence of compounds. 100 μl of these samples were added to 5 mL of Hemox buffer (30 mM TES, 130 mM NaCl, 5 mM KCl, pH=7.4) at 37° C. and then transferred to the Hemox sample chamber. The samples were saturated with oxygen by flushing with compressed air for 10 minutes. The samples were then flushed with pure nitrogen and the respective absorbances of oxy- and deoxy-Hb are recorded as a function of the solution pO2. The oxygen equilibrium data were then fitted to the Hill Model to obtain values for p50. The deoxygenation curves for both whole blood alone (control) and whole blood in the presence of the compound were collected with the TCS software.
Table 5 below lists the delta p50% values where + indicates a delta p50% of between 0 and 29, ++ indicates a delta p50% of between 30 and 50, and +++ indicates a delta p50% of 50 or greater. Unless noted otherwise, the compounds in Table 2 were tested at 1000 μM.

[1] = molecular target: T2, purified Hemoglobin S (HbS) (Homo sapiens, UniProt P68871+P69905, E7V); test: Modulation of hemoglobin oxygen affinity: oxygen equilibrium curves (HEMOX) in purified HbS; format: biochemical, human (homozygous sickle cell patients); details: compound at 30 μM; 25 μM purified HbS, 45 min at 37° C.
T2 construct: HbS was purified by a modified procedure; from tissue; host or cells: blood of homozygous sickle cell patients (CHORI); for the polymerization assay purified by the CRO VIRUSYS
Summary of the method: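 HbS from homozygous sickle cell patient blood, 25 μM in HEMOX buffer pH 7.4, incubated 45 min at 37° C with compound (30 μM unless noted). Air-saturated then deoxygenated with N2; p50 from Hill fit; delta p50% = (control p50 − treated p50)/control p50 × 100.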

HbS/A = molecular target: T3, HbS/A (Homo sapiens, UniProt P68871+P69905, E7V); test: R/T assay (relaxed-to-tense transition under deoxygenated conditions); format: biochemical, human (homozygous sickle cell patients); details: 3 μM HbS/A, % R remaining vs no treatment
T3 construct: A mixture of HbS/A was purified from blood; from tissue; host or cells: blood of homozygous sickle cell patients (CHORI)
Protocol: A relaxed-to-tense transition assay (“R/T assay”) was used to determine the ability of substituted benzaldehyde compounds to maintain the high-oxygen affinity relaxed (R) state of hemoglobin under deoxygenated conditions. This ability can be expressed as a “delta R” value (i.e., the change in the time-period of the R state after hemoglobin is treated with a compound, as compared to the period without treatment with the compound). Delta R is the % R to remaining after the compounds treatment compared with no treatment (e.g. if R % without treatment is 8% while with treatment with a target compound is 48% R at 30 μM, then % R is 40% for that compound.
A mixture of HbS/A was purified from blood obtained from homozygous sickle cell patients though the Hemoglobinopathy Center at Children's Hospital Oakland Research Institute (CHORI) with Institutional Review Board approval. HbS/A (at a final concentration of 3 μM) was incubated for 1 hr at 37° C. in presence or absence of compounds in […] potassium phosphate buffer, pH=7.4 and 30 μM 2, 3 diphosphoglycerate (DPG) in 96 well plates in a final volume of 160 μl. Compounds were added at different concentrations (3 μM to 100 μM final concentrations). Plates were covered with a Mylar film. After incubation was completed the Mylar cover was removed and the plates were placed in a Spectrostar Nano plate reader previously heated at 37° C. Five minutes later, N2 (flow rate=20 L/min) was flowed through the spectrophotometer. Spectroscopic measurements (300 nm to 700 nm) were taken every 5 min for 2 hours. Data analysis was performed by using linear regression from the data retrieved for all wavelengths.
Table 4 below lists the delta R values where + indicates a delta R of between 0 and 30, ++ indicates a delta R of between 30 and 50, and +++ indicates a delta R of 50 or greater. Unless noted otherwise, the compounds in Table 2 were tested at 30 μM.

Row | % delta Delay (purified HBS) | delta p50% [1] | delta R (HbS/A; compound at 30 μM) | delta R (HbS/A; compound at 9 μM) | Structure (SMILES) | delta p50% Values for Whole Blood Assay (whole blood)
1 | ††† (activity >120% but ≤140%) | +++ (a delta p50% of 50 or greater) |  |  | COc1cncc(OCc2cccnc2-c2ccnn2C(C)C)c1C=O [Compound 188, 3-((2-(1-isopropyl-1H-pyrazol-5-yl)pyridin-3-yl)methoxy)-5-methoxyisonicotinaldehyde] | +++ (a delta p50% of 50 or greater)
2 | †††† (activity >160%) | +++ (a delta p50% of 50 or greater) | +++ (a delta R of 50 or greater) |  | CC(C)n1nccc1-c1ncccc1COc1cncc(O)c1C=O [Compound 186, 3-hydroxy-5-((2-(1-isopropyl-1H-pyrazol-5-yl)pyridin-3-yl)methoxy)isonicotinaldehyde] | +++ (a delta p50% of 50 or greater)
3 | †† (activity >80% but ≤120%) | +++ (a delta p50% of 50 or greater) | ++ (a delta R of between 30 and 50) |  | COc1cc(C=O)c(OCc2cccnc2-c2ccnn2CC(F)F)cn1 [Compound 175, 5-((2-(1-(2,2-difluoroethyl)-1H-pyrazol-5-yl)pyridin-3-yl)methoxy)-2-methoxyisonicotinaldehyde] | +++ (a delta p50% of 50 or greater)
4 | † (activity ≥40% but ≤80%) | ++ (a delta p50% of between 30 and 50) |  | + (a delta R of between 0 and 30) | COc1cc(C=O)c(OCc2cccnc2-c2ccnn2CC2CCCCC2)cn1 [Compound 197, 5-((2-(1-(cyclohexylmethyl)-1H-pyrazol-5-yl)pyridin-3-yl)methoxy)-2-methoxyisonicotinaldehyde] | +++ (a delta p50% of 50 or greater)
5 | † (activity ≥40% but ≤80%) | ++ (a delta p50% of between 30 and 50) |  | + (a delta R of between 0 and 30) | O=Cc1cc(OC(F)F)ncc1OCc1cccn2ccnc12 [Compound 158, 2-(difluoromethoxy)-5-(imidazo[1,2-a]pyridin-8-ylmethoxy)isonicotinaldehyde] | + (a delta p50% of between 0 and 29)
6 | ††† (activity >120% but ≤140%) | +++ (a delta p50% of 50 or greater) |  |  | COc1cc(C=O)c(OCc2cccnc2-c2c(C)cnn2C(C)C)cn1 [Compound 190, 5-((2-(1-isopropyl-4-methyl-1H-pyrazol-5-yl)pyridin-3-yl)methoxy)-2-methoxyisonicotinaldehyde] | +++ (a delta p50% of 50 or greater)
7 | †† (activity >80% but ≤120%) | +++ (a delta p50% of 50 or greater) |  | + (a delta R of between 0 and 30) | COc1cc(C=O)c(OCc2cccc(C(=O)O)c2)cn1 [Compound 203, 3-(((4-formyl-6-methoxypyridin-3-yl)oxy)methyl)benzoic acid] | 
8 |  | ++ (a delta p50% of between 30 and 50) |  | + (a delta R of between 0 and 30) | COc1cc(C=O)c(OCc2cccn3c(C)nnc23)cn1 [Compound 58, 2-methoxy-5-((3-methyl-[1,2,4]triazolo[4,3-a]pyridin-8-yl)methoxy)isonicotinaldehyde] | + (a delta p50% of between 0 and 29)
9 |  | ++ (a delta p50% of between 30 and 50) |  | + (a delta R of between 0 and 30) | COc1cc(C=O)c(OCc2cccn3cncc23)cn1 [Compound 140, 5-(imidazo[1,5-a]pyridin-8-ylmethoxy)-2-methoxyisonicotinaldehyde] | + (a delta p50% of between 0 and 29)
10 |  | ++ (a delta p50% of between 30 and 50) |  | +++ (a delta R of 50 or greater) | Cc1ccc(OCc2ccc3c(cnn3C)c2)c(C=O)n1 [Compound 108, 6-methyl-3-((1-methyl-1H-indazol-5-yl)methoxy)picolinaldehyde] | + (a delta p50% of between 0 and 29)
11 |  | ++ (a delta p50% of between 30 and 50) |  | + (a delta R of between 0 and 30) | COC(=O)CCn1nccc1-c1ncccc1COc1cnc(OC)cc1C=O [Compound 200, methyl 3-(5-(3-(((4-formyl-6-methoxypyridin-3-yl)oxy)methyl)pyridin-2-yl)-1H-pyrazol-1-yl)propanoate] | +++ (a delta p50% of 50 or greater)
12 |  | ++ (a delta p50% of between 30 and 50) |  | ++ (a delta R of between 30 and 50) | COc1cc(C=O)c(OCc2cccc3ncccc23)cn1 [Compound 120, 2-methoxy-5-(quinolin-5-ylmethoxy)isonicotinaldehyde] | + (a delta p50% of between 0 and 29)
13 |  | ++ (a delta p50% of between 30 and 50) |  | + (a delta R of between 0 and 30) | COCCOc1cc(C=O)c(OCc2cccn3ccnc23)cn1 [Compound 179, 5-(imidazo[1,2-a]pyridin-8-ylmethoxy)-2-(2-methoxyethoxy) isonicotinaldehyde] | ++ (a delta p50% of between 30 and 50)
14 | ††† (activity >120% but ≤140%) | ++ (a delta p50% of between 30 and 50) |  |  | COc1cc(C=O)c(OCc2cccnc2-c2ncnn2C(C)C)cn1 [Compound 189, 5-((2-(2-isopropyl-2H-1,2,4-triazol-3-yl)pyridin-3-yl)methoxy)-2-methoxyisonicotinaldehyde] | +++ (a delta p50% of 50 or greater)
15 |  | +++ (a delta p50% of 50 or greater) |  | + (a delta R of between 0 and 30) | COc1cc(C=O)c(OCc2cccnc2-c2ccnn2CCO)cn1 [Compound 191, 5-((2-(1-(2-hydroxyethyl)-1H-pyrazol-5-yl)pyridin-3-yl)methoxy)-2-methoxyisonicotinaldehyde] | +++ (a delta p50% of 50 or greater)
